Biological target: T1, LXRβ (Homo sapiens, UniProt P55055)
T1 construct: Co-transfection expression plasmids, comprising full-length LXRα (pCMX-h LXRα[…] or LXRβ (pCMX-hLXRβ)); expressed in transfected cells; host or cells: CV-1 African Green Monkey Kidney Cells
T1 sequence (P55055 1-460): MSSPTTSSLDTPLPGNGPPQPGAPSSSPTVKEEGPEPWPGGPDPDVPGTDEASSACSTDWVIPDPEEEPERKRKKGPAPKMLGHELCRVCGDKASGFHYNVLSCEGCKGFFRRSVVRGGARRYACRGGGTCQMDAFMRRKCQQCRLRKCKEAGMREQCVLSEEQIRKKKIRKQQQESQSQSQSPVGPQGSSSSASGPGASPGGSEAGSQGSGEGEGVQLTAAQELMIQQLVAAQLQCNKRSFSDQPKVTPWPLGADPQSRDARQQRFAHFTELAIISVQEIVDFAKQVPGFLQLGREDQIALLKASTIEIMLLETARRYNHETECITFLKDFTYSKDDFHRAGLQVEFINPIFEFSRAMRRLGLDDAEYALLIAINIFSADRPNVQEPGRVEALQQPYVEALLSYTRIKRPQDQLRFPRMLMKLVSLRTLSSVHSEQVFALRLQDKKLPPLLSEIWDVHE
T1 sequence (P19793 1-462 partner): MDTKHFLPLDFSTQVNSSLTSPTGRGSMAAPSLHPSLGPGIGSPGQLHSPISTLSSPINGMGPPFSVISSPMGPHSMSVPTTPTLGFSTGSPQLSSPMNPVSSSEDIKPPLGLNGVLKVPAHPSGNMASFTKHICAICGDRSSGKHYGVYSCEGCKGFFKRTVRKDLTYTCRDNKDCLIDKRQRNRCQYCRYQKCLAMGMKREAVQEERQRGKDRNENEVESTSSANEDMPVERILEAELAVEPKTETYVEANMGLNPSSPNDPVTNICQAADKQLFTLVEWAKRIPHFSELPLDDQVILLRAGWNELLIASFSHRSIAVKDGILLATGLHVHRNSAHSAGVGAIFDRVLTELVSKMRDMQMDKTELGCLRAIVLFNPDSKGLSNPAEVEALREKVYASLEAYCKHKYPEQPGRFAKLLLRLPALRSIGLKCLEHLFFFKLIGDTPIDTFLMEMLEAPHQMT
Experiment: Co-transfection assay (LXRE luciferase reporter), LXRβ
Type: cell-based
Conditions: for EC50: CV-1 cells transfected with pCMX-hLXRβ and LXREx1-Tk-Luciferase, 20 hours incubation; for Emax: LXRβ co-transfection, relative to high control 1-(2,4-difluorobenzyl)-2-oxo-6-(4-phenoxyphenyl)-4-(trifluoromethyl)-1,2-dihydropyridine-3-carbonitrile, read-out: % Efficacy
Outline: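 CV-1 cells transiently co-transfected with full-length human LXRβ (or LXRα), LXREx1-Tk-luciferase reporter and β-galactosidase control; compound added (10 μM final in single-point, 11-point ½-log curves, ≤0.5% DMSO) for 20 h at 37 °C. Luciferase read; EC50 from four-parameter fit, efficacy relative to reference agonist high control.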

## CCC(F)(F)c1cn(-c2ccc(-c3cc(F)c(CO)c(S(C)(=O)=O)c3)cc2-c2nc(C)oc2-c2ccc(OC(F)(F)F)cc2)c(C)n1 [Example 518, (4′-(4-(1,1-difluoropropyl)-2-methyl-1H-imidazol-1-yl)-3-fluoro-3′-(2-methyl-5-(4-(trifluoromethoxy)phenyl)oxazol-4-yl)-5-(methylsulfonyl)-[1,1′-biphenyl]-4-yl)methanol]
  EC50: 107 nM
  Emax: 49%

## Cc1nc(-c2ccc(Cl)cc2)c(-c2cc(-c3cccc(S(C)(=O)=O)c3)ccc2-n2cc(C(F)(F)F)nc2C)o1 [Example 605, 4-(4-chlorophenyl)-2-methyl-5-(4-(2-methyl-4-(trifluoromethyl)-1H-imidazol-1-yl)-3′-(methylsulfonyl)-[1,1′-biphenyl]-3-yl)oxazole]
  EC50: 91 nM
  Emax: 89%

## Cc1cc(-c2cc(-c3cccc(S(C)(=O)=O)c3)ccc2-n2cc(C(F)(F)F)nc2C)n(-c2ccc(OC(F)(F)F)cc2)n1 [Example 291, 3-methyl-5-{3′-(methylsulfonyl)-4-[2-methyl-4-(trifluoromethyl)-1H-imidazol-1-yl]biphenyl-3-yl}-1-{4-[(trifluoromethyl)oxy]phenyl}-1H-pyrazole]
  EC50: 47 nM
  Emax: 69%

## CS(=O)(=O)c1cc(-c2ccc(-n3cc(C(F)(F)F)nc3Cl)c(-n3nncc3-c3ccc(Cl)cc3)c2)cc(F)c1CO [Example 144, {3′-[5-(4-chlorophenyl)-1H-1,2,3-triazol-1-yl]-4′-[2-chloro-4-(trifluoromethyl)-1H-imidazol-1-yl]-3-fluoro-5-(methylsulfonyl)biphenyl-4-yl}methanol]
  EC50: 110 nM
  Emax: 98%

## Cc1nc(-c2cc(-c3cccc(S(C)(=O)=O)c3)ccc2-n2cc(CO)nc2C)c(-c2ccc3c(c2)OC(F)(F)O3)o1 [Example 369, (1-(3-(5-(2,2-difluorobenzo[d][1,3]dioxol-5-yl)-2-methyloxazol-4-yl)-3′-(methylsulfonyl)biphenyl-4-yl)-2-methyl-1H-imidazol-4-yl)methanol]
  EC50: 1140 nM
  Emax: 29%

## CCCc1nc(-c2ccc(OC(F)(F)F)cc2)c(-c2cc(-c3cccc(S(C)(=O)=O)c3)ccc2-n2cc(C(F)(F)F)nc2C)o1 [Example 602, 5-{3′-(methylsulfonyl)-4-[2-methyl-4-(trifluoromethyl)-1H-imidazol-1-yl]biphenyl-3-yl}-2-propyl-4-{4-[(trifluoromethyl)oxy]phenyl}-1,3-oxazole]
  EC50: 25 nM
  Emax: 87%

## Cc1ccc(-c2cnnn2-c2cc(-c3cc(F)c(CO)c(S(C)(=O)=O)c3)ccc2-n2cc(C(F)(F)F)nc2C)cc1 [Example 48, {3-fluoro-3′-[5-(4-methylphenyl)-1H-1,2,3-triazol-1-yl]-5-(methylsulfonyl)-4′-[2-methyl-4-(trifIuoromethyl)-1H-imidazol-1-yl]biphenyl-4-yl}methanol]
  EC50: 158 nM
  Emax: 89%

## Cc1cn(-c2ccc(-c3cc(F)c(CO)c(S(C)(=O)=O)c3)cc2-n2nncc2-c2ccc(OC(F)(F)F)cc2)c(C)n1 [Example 84, [4′-(2,4-dimethyl-1H-imidazol-1-yl)-3-fluoro-5-(methylsulfonyl)-3′-(5-{4-[(trifluoromethyl)oxy]phenyl)-1H-1,2,3-triazol-1-yl)biphenyl-4-yl]methanol]
  EC50: 852 nM
  Emax: 96%

## Cc1nc(C(F)(F)F)cn1-c1ccc(-c2cccc(S(C)(=O)=O)c2)cc1-n1nncc1-c1ccc(Cl)c(C#N)c1 [Example 41, 2-chloro-5-(1-{3′-(methylsulfonyl)-4-[2-methyl-4-(trifluoromethyl)-1H-imidazol-1-yl]biphenyl-3-yl}-1H-1,2,3-triazol-5-yl)benzonitrile]
  EC50: 1050 nM
  Emax: 74%

## Cc1nc(-c2cc(-c3cccc(S(C)(=O)=O)c3)ccc2-n2cc(C(F)(F)F)nc2C)c(-c2ccc(Cl)cc2)o1 [Example 375, 5-(4-chlorophenyl)-2-methyl-4-{3′-(methylsulfonyl)-4-[2-methyl-4-(trifluoromethyl)-1H-imidazol-1-yl]biphenyl-3-yl}-1,3-oxazole]
  EC50: 103 nM
  Emax: 84%

## CNS(=O)(=O)c1cccc(-c2cc(F)c(-n3cc(C(F)(F)F)nc3C)c(-n3nncc3-c3ccc(Cl)cc3)c2)c1 [Example 209, 3′-[5-(4-chlorophenyl)-1H-1,2,3-triazol-1-yl]-5′-fluoro-N-methyl-4′-[2-methyl-4-(trifluoromethyl)-1H-imidazol-1-yl]biphenyl-3-sulfonamide]
  EC50: 214 nM
  Emax: 80%

## Cc1nc(C(F)(F)F)cn1-c1ccc(-c2ccc(CO)c(S(C)(=O)=O)c2)cc1-c1ccnn1-c1ccc(Cl)nc1 [Example 298, (3′-(1-(6-chloropyridin-3-yl)-1H-pyrazol-5-yl)-4′-(2-methyl-4-(trifluoromethyl)-1H-imidazol-1-yl)-3-(methylsulfonyl)biphenyl-4-yl)methanol]
  EC50: 317 nM
  Emax: 71%

## CS(=O)(=O)c1cc(-c2ccc(-n3cc(C(F)(F)F)nc3Cl)c(-n3nncc3-c3ccc(Cl)cc3Cl)c2)cc(F)c1CO [Example 145, {4′-[2-chloro-4-(trifluoromethyl)-1H-imidazol-1-yl]-3′-[5-(2,4-dichlorophenyl)-1H-1,2,3-triazol-1-yl]-3-fluoro-5-(methylsulfonyl)biphenyl-4-yl}methanol]
  EC50: 233 nM
  Emax: 110%

## Cc1cc(-c2cc(-c3cc(F)c(CO)c(S(C)(=O)=O)c3)ccc2-n2cc(C(F)(F)F)nc2C)n(-c2ccc3c(c2)OC(F)(F)O3)n1 [Example 299, (3′-(1-(2,2-difluorobenzo[d][1,3]dioxol-5-yl)-3-methyl-1H-pyrazol-5-yl)-3-fluoro-4′-(2-methyl-4-(trifluoromethyl)-1H-imidazol-1-yl)-5-(methylsulfonyl)biphenyl-4-yl)methanol]
  EC50: 17 nM
  Emax: 77%

## Cc1nc(C(F)(F)F)cn1-c1ccc(-c2cccc(S(C)(=O)=O)c2)cc1-c1nc(C2CC2)cn1-c1ccc(Cl)cc1 [Example 646, 1-(4-chlorophenyl)-4-cyclopropyl-2-(4-(2-methyl-4-(trifluoromethyl)-1H-imidazol-1-yl)-3′-(methylsulfonyl)-[1,1′-biphenyl]-3-yl)-1H-imidazole]
  EC50: 572 nM
  Emax: 44%

## Cc1nc(C2CC2)cn1-c1ccc(-c2cccc(S(C)(=O)=O)c2)cc1-n1nncc1-c1ccc(Cl)cc1 [Example 228, 5-(4-chlorophenyl)-1-(4-(4-cyclopropyl-2-methyl-1H-imidazol-1-yl)-3′-(methylsulfonyl)-[1,1′-biphenyl]-3-yl)-1H-1,2,3-triazole]
  EC50: 2560 nM
  Emax: 67%

## Cc1nc(C(C)(F)F)cn1-c1ccc(-c2cc(F)c(CO)c(S(C)(=O)=O)c2)cc1-n1nncc1-c1ccc(OC(F)(F)F)cc1 [Example 174, {4′-[4-(1,1-difluoroethyl)-2-methyl-1H-imidazol-1-yl]-3-fluoro-5-(methylsulfonyl)-3′-(5-{4-[(trifluoromethyl)oxy]phenyl}-1H-1,2,3-triazol-1-yl)biphenyl-4-yl}methanol]
  EC50: 467 nM
  Emax: 88%

## Cc1nc(C(F)(F)F)cn1-c1ccc(-c2cccc(S(C)(=O)=O)c2)cc1-c1nc(C(C)CO)oc1-c1ccc(OC(F)(F)F)cc1 (stereo not shown) [Example 565, 2-(4-(4-(2-methyl-4-(trifluoromethyl)-1H-imidazol-1-yl)-3′-(methylsulfonyl)-[1,1′-biphenyl]-3-yl)-5-(4-(trifluoromethoxy)phenyl)oxazol-2-yl)propan-1-ol]
  EC50: 354 nM
  Emax: 30%

## Cc1nc(-c2cc(-c3cccc(S(C)(=O)=O)c3)ccc2-n2cc(C(F)(F)F)nc2C)c(-c2cccc(OC(F)(F)F)c2)o1 [Example 573, 2-methyl-4-(4-(2-methyl-4-(trifluoromethyl)-1H-imidazol-1-yl)-3′-(methylsulfonyl)-[1,1′-biphenyl]-3-yl)-5-(3-(trifluoromethoxy)phenyl)oxazole]
  EC50: 127 nM
  Emax: 50%

## COc1ccc(-c2oc(C)nc2-c2cc(-c3cccc(S(C)(=O)=O)c3)ccc2-n2cc(C(F)(F)F)nc2C)cn1 [Example 569, 5-(6-methoxypyridin-3-yl)-2-methyl-4-(4-(2-methyl-4-(trifluoromethyl)-1H-imidazol-1-yl)-3′-(methylsulfonyl)-[1,1′-biphenyl]-3-yl)oxazole]
  EC50: 214 nM
  Emax: 90%

Reference: patent publication US9834542B2, “LXR modulators” (BRISTOL-MYERS SQUIBB COMPANY, priority 2013, dated 2017)
